Test results published in ChEMBL document CHEMBL1201862, “PubChem BioAssay data set” (2004).
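Five compound concentrations were applied to cells in 96-well plates for 48 hours; endpoints were derived by simple linear interpolation of the resulting dose-response curve. The concentration for 50% growth inhibition is given as GI50.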 The source made the active and inactive calls. Cut-off read from the data, not from the text of the source: active = GI50 up to about 1.1 µM and inactive = higher. Non-standard residues stand in square brackets, D forms with d. Residues, ends and D or L forms follow the SMILES beside them. *: point of attachment. Benzoyl(4-OMe) = COc1ccc(C(=O)*)cc1; 2Thi = N[CH](Cc1cccs1)C(=O)O

How the values were obtained:
Test in all cases: growth of human tumour cells (NCI), 48 h
OVCAR-3 = test system: OVCAR-3
CAKI-1 = test system: CAKI-1
KM-20L2 = test system: KM-20L2
NCI-H460 = test system: NCI-H460
HCC 2998 = test system: HCC 2998
KM12 = test system: KM12
A498 = test system: A498
UACC-257 = test system: UACC-257
ACHN = test system: ACHN
UACC-62 = test system: UACC-62
HCT-116 = test system: HCT-116
NCI-H23 = test system: NCI-H23
SK-MEL-28 = test system: SK-MEL-28
SN12C = test system: SN12C
RXF 393 = test system: RXF 393
T47D = test system: T47D
MCF7 = test system: MCF7
NCI/ADR-RES = test system: NCI/ADR-RES
SR = test system: SR
BT-549 = test system: BT-549

Measured: GI50

Cc1cccc(NC(=O)/C(=N\NC(C)(C)C)C2NC(=S)NC2=O)c1C (stereo not given)
inactive: OVCAR-3 > 100 µM | CAKI-1 15.4 µM | KM-20L2 > 100 µM | NCI-H460 > 100 µM | HCC 2998 > 100 µM | KM12 > 100 µM | A498 > 100 µM | UACC-257 > 100 µM | ACHN > 100 µM | UACC-62 > 100 µM | HCT-116 > 100 µM

C=C(/C=C/C=C(\CO)CCC=C(C)C)[C@H]1CCC2([C@H](CCCO)/C(=C(/C)C=O)CC[C@]2(C)O)[C@H]1O (stereo not given in full)
inactive: NCI-H23 > 100 µM | OVCAR-3 > 100 µM | CAKI-1 > 100 µM | KM-20L2 > 100 µM | NCI-H460 56.8 µM | HCC 2998 > 100 µM | SK-MEL-28 > 100 µM | KM12 > 100 µM | A498 > 100 µM | UACC-257 > 100 µM | ACHN > 100 µM | UACC-62 > 100 µM | HCT-116 > 100 µM

C[C@]12CCC(=O)C=C1CC[C@@H]1C2CC[C@]2(C)c3nn(-c4ccccc4)nc3CC12 (stereo not given in full)
inactive: NCI-H23 > 100 µM | OVCAR-3 > 100 µM | KM-20L2 > 100 µM | SN12C > 100 µM | NCI-H460 > 100 µM | HCC 2998 > 100 µM | SK-MEL-28 > 100 µM | KM12 > 100 µM | A498 > 100 µM | UACC-257 > 100 µM | ACHN > 100 µM | UACC-62 > 100 µM | HCT-116 > 100 µM | RXF 393 > 100 µM

COC1OC(CO)C(O)C(OC(C)=O)C1NC(=O)N(CCCl)N=O (stereo not given)
inactive: NCI-H23 > 100 µM | OVCAR-3 > 100 µM | CAKI-1 > 100 µM | KM-20L2 > 100 µM | SN12C > 100 µM | NCI-H460 83.6 µM | HCC 2998 > 100 µM | SK-MEL-28 > 100 µM | KM12 > 100 µM | A498 > 100 µM | UACC-257 > 100 µM | ACHN > 100 µM | UACC-62 24.8 µM | HCT-116 > 100 µM | RXF 393 > 100 µM

COc1ccc2ccccc2c1C1OC(=O)c2ccccc21 (stereo not given)
inactive: NCI-H23 > 100 µM | OVCAR-3 > 100 µM | CAKI-1 > 100 µM | KM-20L2 > 100 µM | SN12C > 100 µM | HCC 2998 > 100 µM | KM12 56.6 µM | A498 > 100 µM | UACC-257 91 µM | ACHN > 100 µM | UACC-62 80 µM

OC(O)(C(F)(F)F)C(F)(F)F
inactive: NCI-H23 > 100 µM | T47D > 100 µM | OVCAR-3 > 100 µM | CAKI-1 > 100 µM | SN12C > 100 µM | MCF7 > 100 µM | NCI-H460 > 100 µM | HCC 2998 > 100 µM | SK-MEL-28 > 100 µM | NCI/ADR-RES > 100 µM | KM12 > 100 µM | A498 > 100 µM | UACC-257 > 100 µM | ACHN > 100 µM | SR > 100 µM | UACC-62 > 100 µM | BT-549 > 100 µM | HCT-116 > 100 µM | RXF 393 > 100 µM

Cc1nnc2n1N=C(c1ccccc1)C(c1ccccc1)S2 (stereo not given)
inactive: NCI-H23 24.3 µM | OVCAR-3 36.9 µM | CAKI-1 64.9 µM | KM-20L2 27.4 µM | SN12C 59.6 µM | NCI-H460 34.6 µM | HCC 2998 34.8 µM | KM12 42.1 µM | A498 64 µM | UACC-257 67.1 µM | ACHN 33.2 µM | UACC-62 39.5 µM | HCT-116 38.2 µM | RXF 393 36.1 µM

CCc1cccc(CC)c1NC(=O)C1=C(C)NC(C)=C(C(=O)Nc2c(CC)cccc2CC)C1c1ccc([N+](=O)[O-])cc1
inactive: NCI-H23 22.8 µM | OVCAR-3 32.1 µM | CAKI-1 15.8 µM | KM-20L2 26.7 µM | SN12C 46.5 µM | NCI-H460 17.5 µM | HCC 2998 36.2 µM | SK-MEL-28 17.4 µM | KM12 18 µM | A498 19 µM | UACC-257 15.4 µM | ACHN 27.4 µM | HCT-116 15.1 µM | RXF 393 17.1 µM

CC1(C)CC23C(=O)N(c4ccccc4)C(Nc4ccccc4)=NC2=CC(C#N)=C(C#N)C3O1 (stereo not given)
inactive: NCI-H23 34.9 µM | OVCAR-3 > 100 µM | CAKI-1 23.2 µM | KM-20L2 > 100 µM | SN12C 34.8 µM | NCI-H460 43.8 µM | HCC 2998 67.1 µM | SK-MEL-28 > 100 µM | KM12 46.6 µM | A498 26.4 µM | UACC-257 43.3 µM | ACHN 28.8 µM | UACC-62 96.4 µM | HCT-116 89.5 µM | RXF 393 15.2 µM

CCCCOC(=O)C1C2CCC(O2)C1C(=O)OCCCC (stereo not given)
inactive: NCI-H23 > 100 µM | OVCAR-3 > 100 µM | CAKI-1 > 100 µM | KM-20L2 > 42.3 µM | SN12C > 73.3 µM | NCI-H460 4.17 µM | HCC 2998 > 62.7 µM | SK-MEL-28 > 96.8 µM | KM12 > 100 µM | A498 > 100 µM | UACC-257 > 55.1 µM | ACHN > 100 µM | UACC-62 > 100 µM | HCT-116 > 45.6 µM | RXF 393 > 61.9 µM

CCOc1ccc(/N=C/c2ccc3ccccc3n2)cc1
inactive: NCI-H23 > 100 µM | OVCAR-3 > 100 µM | CAKI-1 > 100 µM | KM-20L2 > 100 µM | SN12C > 100 µM | NCI-H460 > 100 µM | HCC 2998 > 100 µM | SK-MEL-28 > 100 µM | KM12 > 100 µM | A498 > 100 µM | UACC-257 > 100 µM | ACHN > 100 µM | UACC-62 > 100 µM | HCT-116 > 100 µM | RXF 393 > 100 µM

O=S(O)CCCCSSCCCCSSCCCCS(=O)O
inactive: NCI-H23 36 µM | OVCAR-3 33.9 µM | CAKI-1 95.3 µM | KM-20L2 > 100 µM | SN12C 42.7 µM | NCI-H460 53.1 µM | HCC 2998 > 100 µM | SK-MEL-28 20.7 µM | KM12 76 µM | A498 96.6 µM | UACC-257 10.1 µM | ACHN 40.9 µM | UACC-62 12.1 µM | HCT-116 > 100 µM | RXF 393 27.2 µM

CCC(C)C(NC(=O)C(Cc1cccs1)NC(=O)C(CC(C)C)NC(=O)C(CC(C)C)NC(=O)C(CCCCN)NC(=O)C(CCCNC(=N)N)NC(=O)c1ccc(OC)cc1)C(=O)NC(CC(C)C)C(N)=O (stereo not given) ({Benzoyl(4-OMe)}-RKLL[2Thi]IL-NH2; configuration not given here)
inactive: NCI-H23 > 100 µM | T47D > 100 µM | OVCAR-3 > 100 µM | CAKI-1 > 100 µM | SN12C > 100 µM | MCF7 > 100 µM | NCI-H460 > 100 µM | HCC 2998 > 100 µM | SK-MEL-28 > 100 µM | NCI/ADR-RES > 100 µM | KM12 > 100 µM | A498 > 100 µM | UACC-257 > 100 µM | ACHN > 100 µM | SR > 100 µM | UACC-62 > 100 µM | BT-549 > 100 µM | HCT-116 > 100 µM | RXF 393 > 100 µM
